Test results taken from patent US12318403B2, “2′3′-cyclic dinucleotides and prodrugs thereof” (INSTITUTE OF ORGANIC CHEMISTRY AND BIOCHEMISTRY ASCR, V.V.I., priority 2019, dated 2025).
Like-named read-outs stand apart in the source and are kept apart here.

Key:
human WT STING = biological target: T1, human WT STING (Homo sapiens, UniProt Q86WV6, H232R); test: Differential Scanning Fluorimetry with WT STING; format: binding; settings: thermal shift vs STING apoprotein; 150 μM CDN; truncated WT STING (residues 140-343)
T1 construct: truncated human WT STING or AQ STING (amino acid residues 140-343); 8xHis (N, cleaved yes); SUMO (N, cleaved yes); made in house; host or cells: E. coli Rosetta-gami B (DE3)
T1 sequence (Q86WV6 140-343 H232R): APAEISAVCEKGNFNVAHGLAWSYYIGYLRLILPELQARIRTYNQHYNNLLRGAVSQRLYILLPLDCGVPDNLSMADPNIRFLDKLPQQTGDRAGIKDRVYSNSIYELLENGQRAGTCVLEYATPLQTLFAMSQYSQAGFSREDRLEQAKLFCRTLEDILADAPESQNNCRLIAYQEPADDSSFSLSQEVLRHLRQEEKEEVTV

[1] = biological target: T2, AQ human STING (G230A-R293Q) (Homo sapiens, UniProt Q86WV6, G230A/H232R/R293Q); test: Differential Scanning Fluorimetry with AQ STING; format: binding; settings: thermal shift vs STING apoprotein; 150 μM CDN; truncated AQ STING (residues 140-343)
T2 construct: truncated human WT STING or AQ STING (amino acid residues 140-343); 8xHis (N, cleaved yes); SUMO (N, cleaved yes); made in house; host or cells: E. coli Rosetta-gami B (DE3)
T2 sequence (Q86WV6 140-343 G230A/H232R/R293Q): as the sequence (Q86WV6 140-343 H232R) above, with G91A, R154Q counted along it

[2] = test system: peripheral blood mononuclear cell (PBMC); test: Peripheral blood mononuclear cell assay; settings: PBMC, average of one to four donors
[3] = biological target: T3, human wild type STING (WT STING) (Homo sapiens, UniProt Q86WV6, H232R); test: 293T WT STING standard reporter assay; format: cell-based; settings: 293T wtSTING-FL cells; standard reporter assay without digitonin; 7 hours; ISRE firefly luciferase; read-out: 293T WT STING EC50
T3 sequence (Q86WV6 whole entry H232R): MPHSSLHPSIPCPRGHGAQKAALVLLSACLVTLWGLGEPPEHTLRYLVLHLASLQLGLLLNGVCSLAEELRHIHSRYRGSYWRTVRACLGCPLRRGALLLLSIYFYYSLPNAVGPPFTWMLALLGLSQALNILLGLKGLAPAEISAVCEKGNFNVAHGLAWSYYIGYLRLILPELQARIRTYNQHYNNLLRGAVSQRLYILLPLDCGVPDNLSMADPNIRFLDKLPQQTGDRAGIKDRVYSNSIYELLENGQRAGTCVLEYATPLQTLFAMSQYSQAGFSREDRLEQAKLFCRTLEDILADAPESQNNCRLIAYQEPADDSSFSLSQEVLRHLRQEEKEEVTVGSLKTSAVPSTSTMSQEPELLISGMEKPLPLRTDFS

[4] = biological target: T3, human wild type STING (WT STING); test: Digitonin assay using 293T wtSTING-FL reporter cells; format: cell-based; settings: 293T wtSTING-FL cells; compounds in Digitonin buffer 30 minutes, then 5 hours in medium; ISRE firefly luciferase

DSF ΔTm WT STING (human WT STING): 19.2 °C
DSF ΔTm AQ STING [1]: 27.6 °C
EC50 [3]: 400 nM
EC50 [4]: 12 nM
Structure (SMILES): Nc1nc2c(ncn2[C@@H]2O[C@@H]3COP(=O)(S)CO[C@H]4[C@@H](F)[C@H](n5cnc6c(N)ncnc65)O[C@@H]4COP(=O)(S)O[C@@H]2[C@@H]3F)c(=O)[nH]1 (single isomer, unassigned) [Compound 17d]
EC50 ([2]; read-out: PBMC EC50 IFN-α, compounds 1h, washed, 15 hour incubation, interferon-alpha level in medium): 69 µM
EC50 ([2]; read-out: PBMC EC50 IFN-γ, compounds 1h, washed, 15 hour incubation, interferon-gamma level in medium): 23 µM
EC50 ([2]; read-out: PBMC EC50 TNF-α, compounds 1h, washed, 15 hour incubation, tumor necrosis factor-alpha level in medium): 68 µM
